Laboratory results reported in patent US10765114B2, “4-amino-6-(pyridyl and 2-substitutedphenyl)-picolinates and 6-amino-2-(pyridyl and 2-substitutedphenyl)-pyrimidine-4-carboxylates and their use as herbicides” (Dow AgroSciences LLC, priority 2013, dated 2020).
Where two headings read alike, the source gives them in different places.

What was measured:
[1] = test system: Key Grass and Sedge Weeds as well as Grass Crops; experiment: Post-Emergent Test II (Table 6); assay type: in vivo; conditions: given as numbers; for Visual Growth Reduction (%) 14 Days After Application, CYPSS: CYPSS (CYPES: yellow nutsedge, Cyperus esculentus); for Visual Growth Reduction (%) 14 Days After Application, DIGSA: DIGSA: crabgrass (Digitaria sanguinalis); for Visual Growth Reduction (%) 14 Days After Application, ECHSS: ECHSS (ECHCG: barnyardgrass, Echinochloa crus-galli); for Visual Growth Reduction (%) 14 Days After Application, ORYSS: ORYSS (ORYSA: rice, Oryza sativa); for Visual Growth Reduction (%) 14 Days After Application, ORYSS / Visual Growth Reduction (%) 14 Days After Application, TRZSS / Visual Growth Reduction (%) 14 Days After Application, ZEAMX: crop; for Visual Growth Reduction (%) 14 Days After Application, SETFA: SETFA: giant foxtail (Setaria faberi); for Visual Growth Reduction (%) 14 Days After Application, SORVU: SORVU: johnsongrass (Sorghum vulgare); for Visual Growth Reduction (%) 14 Days After Application, TRZSS: TRZSS (TRZAS: wheat, spring, Triticum aestivum); for Visual Growth Reduction (%) 14 Days After Application, ZEAMX: ZEAMX: maize, corn (Zea mays)
Method: (§1) Seeds or nutlets of the desired test plant species were planted in Sun Gro Metro-Mix® 360 planting mixture, which typically has a pH of 6.0 to 6.8 and an organic matter content of about 30 percent, in plastic pots with a surface area of 64 square centimeters. When required to ensure good germination and healthy plants, a fungicide treatment and/or other chemical or physical treatment was applied. The plants were grown for 7-21 days in a greenhouse with an approximate 15 h photoperiod which was maintained at about 23-29° C. during the day and 22-28° C. during the night. Nutrients and water were added on a regular basis and supplemental lighting was provided with overhead metal halide 1000-Watt lamps as necessary. The plants were employed for testing when they reached the first or second true leaf stage.
(§2) A weighed amount, determined by the highest rate to be tested, of each test compound was placed in a 25 mL glass vial and was dissolved in 4 mL of a 97:3 v/v mixture of acetone and DMSO to obtain concentrated stock solutions. […] The concentrated stock solutions obtained were diluted with 20 mL of an aqueous mixture containing acetone, water, isopropyl alcohol, DMSO, Atplus 411F crop oil concentrate, and Triton® X-155 surfactant in a 48.5:39:10:1.5:1.0:0.02 v/v ratio to obtain spray solutions containing the highest application rates. Additional application rates were obtained by serial dilution of 12 mL of the high rate solution into a solution containing 2 mL of 97:3 v/v mixture of acetone and DMSO and 10 mL of an aqueous mixture containing acetone, water, isopropyl alcohol, DMSO, Atplus 411F crop oil concentrate, and Triton X-155 surfactant in a 48.5:39:10:1.5:1.0:0.02 v/v ratio to obtain ½×, ¼×, ⅛× and 1/16× rates of the high rate. Compound requirements are based upon a 12 mL application volume at a rate of 187 liters per hectare (L/ha). Formulated compounds were applied to the plant material with an overhead Mandel track sprayer equipped with 8002E nozzles calibrated to deliver 187 L/ha over an application area of 0.503 square meters at a spray height of 18 inches (43 cm) above the average plant canopy height. Control plants were sprayed in the same manner with the solvent blank.
(§3) The treated plants and control plants were placed in a greenhouse as described above and watered by subirrigation to prevent wash-off of the test compounds. After 14 days, the condition of the test plants as compared with that of the untreated plants was determined visually and scored on a scale of 0 to 100 percent where 0 corresponds to no injury and 100 corresponds to complete kill and presented as indicated in Table A. Some of the compounds tested, application rates employed, plant species tested, and results are given in Table 5.

[2] = test system: Key Broadleaf Weed and Crop Species; experiment: Post-Emergent Test II (Table 5); assay type: in vivo; conditions: post-emergence, 336 h, given as numbers; for pest or weed control at 70 g/ha: application rate 70 (kg ai/ha; footnote: g ai/ha); for pest or weed control at 140 g/ha: application rate 140 (kg ai/ha; footnote: g ai/ha)
Method: as §1, §2, §3

[3] = Abutilon theophrasti, ABUTH: velvetleaf (Abutilon theophrasti), read-out: Visual Growth Reduction (%) 14 Days After Application ABUTH
[4] = Amaranthus retroflexus, AMARE: redroot pigweed (Amaranthus retroflexus), read-out: Visual Growth Reduction (%) 14 Days After Application AMARE
[5] = Brassica napus, BRSSS: oilseed rape, canola (Brassica napus), read-out: Visual Growth Reduction (%) 14 Days After Application BRSSS
[6] = Chenopodium album, CHEAL: lambsquarters (Chenopodium album), read-out: Visual Growth Reduction (%) 14 Days After Application CHEAL
[7] = Euphorbia heterophylla, EPHHL: wild poinsettia (Euphorbia heterophylla), read-out: Visual Growth Reduction (%) 14 Days After Application EPHHL
[8] = Helianthus annuus, HELAN: sunflower (Helianthus annuus), read-out: Visual Growth Reduction (%) 14 Days After Application HELAN
[9] = Viola tricolor, VIOTR: wild pansy (Viola tricolor), read-out: Visual Growth Reduction (%) 14 Days After Application VIOTR

Compound | Visual Growth Reduction (%) 14 Days After Application, CYPSS ([1]; 70 g ai/ha) [%] | Visual Growth Reduction (%) 14 Days After Application, CYPSS ([1]; 140 g ai/ha) [%] | Visual Growth Reduction (%) 14 Days After Application, DIGSA ([1]; 70 g ai/ha) [%] | Visual Growth Reduction (%) 14 Days After Application, DIGSA ([1]; 140 g ai/ha) [%] | Visual Growth Reduction (%) 14 Days After Application, ECHSS ([1]; 70 g ai/ha) [%] | Visual Growth Reduction (%) 14 Days After Application, ECHSS ([1]; 140 g ai/ha) [%] | Visual Growth Reduction (%) 14 Days After Application, ORYSS ([1]; 70 g ai/ha) [%] | Visual Growth Reduction (%) 14 Days After Application, ORYSS ([1]; 140 g ai/ha) [%] | Visual Growth Reduction (%) 14 Days After Application, SETFA ([1]; 70 g ai/ha) [%] | Visual Growth Reduction (%) 14 Days After Application, SETFA ([1]; 140 g ai/ha) [%] | Visual Growth Reduction (%) 14 Days After Application, SORVU ([1]; 70 g ai/ha) [%] | Visual Growth Reduction (%) 14 Days After Application, SORVU ([1]; 140 g ai/ha) [%] | Visual Growth Reduction (%) 14 Days After Application, TRZSS ([1]; 70 g ai/ha) [%] | Visual Growth Reduction (%) 14 Days After Application, TRZSS ([1]; 140 g ai/ha) [%] | Visual Growth Reduction (%) 14 Days After Application, ZEAMX ([1]; 70 g ai/ha) [%] | Visual Growth Reduction (%) 14 Days After Application, ZEAMX ([1]; 140 g ai/ha) [%] | pest or weed control at 70 g/ha [2, 3] [%] | pest or weed control at 140 g/ha [2, 3] [%] | pest or weed control at 70 g/ha [2, 4] [%] | pest or weed control at 140 g/ha [2, 4] [%] | further results
C=Cc1c(C(=O)O)nc(-c2ccc(C(F)(F)F)nc2)c(F)c1N [Compound 101] | 80 | 80 | 0 | 10 | 80 | 60 | 40 | 95 | 20 | 40 | 45 | 75 | 10 | 40 | 0 | 25 | 85 | 85 | 100 | 100 | pest or weed control at 70 g/ha [2, 5]: 70%; pest or weed control at 140 g/ha [2, 5]: 80%; pest or weed control at 70 g/ha [2, 6]: 100%; pest or weed control at 140 g/ha [2, 6]: 98%; pest or weed control at 70 g/ha [2, 7]: 98%; pest or weed control at 140 g/ha [2, 7]: 100%; pest or weed control at 70 g/ha [2, 8]: 80%; pest or weed control at 140 g/ha [2, 8]: 85%; pest or weed control at 70 g/ha [2, 9]: 75%; pest or weed control at 140 g/ha [2, 9]: 80%
C=Cc1c(N)nc(-c2ccc(C(F)(F)F)nc2)nc1C(=O)O [Compound 102] | 10 | 35 | 0 | 0 | 30 | 70 | 0 | 0 | 0 | 0 | 0 | 0 | 0 | 10 | 0 | 0 | 15 | 15 | 85 | 100 | pest or weed control at 70 g/ha [2, 5]: 20%; pest or weed control at 140 g/ha [2, 5]: 35%; pest or weed control at 70 g/ha [2, 6]: 80%; pest or weed control at 140 g/ha [2, 6]: 75%; pest or weed control at 70 g/ha [2, 7]: 85%; pest or weed control at 140 g/ha [2, 7]: 100%; pest or weed control at 70 g/ha [2, 8]: 65%; pest or weed control at 140 g/ha [2, 8]: 75%; pest or weed control at 70 g/ha [2, 9]: 35%; pest or weed control at 140 g/ha [2, 9]: 80%
